The values that follow come from patent US5006511A, “Di- or tripeptide renin inhibitors containing lactam conformational restriction in achpa” (Merck & Co., Inc., priority 1988, dated 1991).

pIC50: −log10 of the molar value. Where a SMILES comes first, the peptide text is derived from it. [ ]: non-standard residue; d: D form. The star is where a group is joined. Sta = CC(C)C[C@H](N)[C@@H](O)CC(=O)O; Isovaleryl = CC(C)CC(=O)*

The first test deals with hog renin.
Assay: not given
To be noted: after the injection of hog renin into nephrectomized rats; Gross et al., Science 1972; cited from earlier work.
In the case of `CC(C)CC(=O)N[C@H](C(=O)N[C@H](C(=O)N[C@@H](CC(C)C)[C@@H](O)CC(=O)N[C@@H](C)C(=O)N[C@@H](CC(C)C)[C@@H](O)CC(=O)O)C(C)C)C(C)C` [pepstatin] (Isovaleryl-VV[Sta]A[Sta]-OH), the “blood pressure in vivo” value was “reduces blood pressure in vivo”.

In a further test the target is T1, human plasma renin (Homo sapiens, UniProt P00797).
T1 construct: from tissue; host or cells: human plasma
T1 sequence (P00797 67-406): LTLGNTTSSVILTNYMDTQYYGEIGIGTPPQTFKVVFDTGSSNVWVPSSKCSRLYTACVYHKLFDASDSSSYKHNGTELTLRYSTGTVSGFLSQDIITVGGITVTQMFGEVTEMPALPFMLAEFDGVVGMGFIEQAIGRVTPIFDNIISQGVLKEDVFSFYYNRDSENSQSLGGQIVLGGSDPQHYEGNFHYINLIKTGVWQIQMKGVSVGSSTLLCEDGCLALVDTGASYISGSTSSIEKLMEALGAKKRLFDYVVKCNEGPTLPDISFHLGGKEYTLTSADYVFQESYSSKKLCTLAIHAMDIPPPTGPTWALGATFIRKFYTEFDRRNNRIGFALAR
Nature of the test: In vitro inhibition of human plasma renin (Boger et al., J. Med. Chem. 1985, 28, 1779). In kind it is biochemical. To be noted: human plasma renin assay. As to the method: In vitro inhibition of human plasma renin was measured as described by Boger, et al., J. Med. Chem. (1985) 28, 1779.
They were analyzed for purity by HPLC (30 minute gradient, 5% CH3 CN--H2 O to 95% CH3 CN--H2 O buffered with 0.1% H3 PO4; C18 reverse phase column), and were analyzed for composition by C, H, and N combustion analysis. IC50 values were measured in vitro using the human plasma renin assay, as described by Boger et al. J. Med. Chem. (1985) 28, 1779.
They were analyzed for purity by HPLC under conditions given above, and were analyzed for composition by C, H, and N combustion analysis. IC50 values were measured as described above.
As usually defined, the pIC50 is −log10 of the IC50, conventionally taken in molar units. Consider “Boc-Phe-His-(ACHP)-1-(2-Benzyloxyethyl-2-Pyrrolidinone [Example 3E]”, for which the negative logarithm of the IC50 (pIC50) is 7.62.

In turn, “Boc-Phe-His-(ACHP)-1-Cyclohexyl-2-Pyrrolidinone [Example 3B]” had a pIC50 of 8.00.

Molecule “Boc-Phe-His-(ACHP)-1-Methyl-2-Pyrrolidinone [Example 3A]” showed a negative-log IC50 (pIC50) of 8.00.

With “Boc-Phe-His-(ACHP)-1-Methyl-5(R)-Vinyl-2-Pyrrolidinone [Example 3G]”, the pIC50 was 8.60.

In turn, “Boc-Phe-His-(ACHP)-1-Methyl-5(S)-Vinyl-2-Pyrrolidinone [Example 3F]” showed a pIC50 of 8.10.

For the molecule “Boc-Phe-His-(ACHP)-5(R)-Ethyl-1-Methyl-2-Pyrrolidinone [Example 3K]”, the negative-log IC50 (pIC50) was 8.07.

Take “Boc-Phe-His-(ACHP)-5(S)-Acetoxymethyl)-1-Methyl-2-Pyrrolidinone [Example 3J]”: the negative logarithm of the IC50 (pIC50) was 6.80.

Consider “Boc-Phe-His-(ACHP)-5(S)-Benzyloxymethyl-1-Methyl-2-Pyrrolidinone [Example 3C]”, for which the pIC50 was 5.36.

On to “Boc-Phe-His-(ACHP)-5(S)-Ethyl-1-Methyl-2-Pyrrolidinone [Example 3L]”, for which the pIC50 was 8.28.

Regarding “Boc-Phe-His-(ACHP)-5(S)-Hydroxymethyl)-1-Methyl-2-Pyrrolidinone [Example 3I]”, the negative-log IC50 (pIC50) is 7.85.

As to “Boc-Phe-His-(ACHP)-5(S)-Methoxymethyl-1-Methyl-2-Pyrrolidinone [Example 3D]”, the negative-log IC50 (pIC50) was 7.15.
